Where two headings read alike, the source gives them in different places. Marks after values point to notes of the source that are not given here.
How the values were obtained:
Crj: CD(SD)IGS rats [1] = details: rat, in vivo
Description: (§1) The following 10 kinds of commercially available drugs were examined as the test compounds for a potential of inducing PLsis by histopathological examination and peripheral blood lymphocyte testing.
(§2) The following experiments were performed using the prematurely autopsied animals.
(§3) The high-dose dosing suspension was diluted about 3 fold and 10 fold with dispersant/solvent to prepare intermediate- and low-dose dosing suspensions. […] [For LD50, the Summary Basis of Approval (FDA) for each drug was referenced to.]
(§4) The animals were examined for mortality, general conditions, body weight, food consumption and the like using PM4800 (Mettler) and EB3200D (Shimadzu Corporation).

male cynomolgus monkeys = details: cynomolgus monkey, in vivo
Description: Amiodarone and perhexiline were purchased from SIGMA Company.
Subsequently, the animals were allocated to four groups (5 animals in total) comprising 2 animals in the control group and 1 male in each treatment group, respectively.
The high-dose dosing suspension was diluted with the dispersant/solvent to prepare a low-dose dosing suspension.
After completion of the administration, livers, kidneys, hearts, spleens, lungs, mesenteric lymph nodes, eyeballs, testes and brains were collected from all animals, and examined for histopathological changes by conventional method of optical microscopy. Additionally, blood samples were collected in the pre-dosing period, on the first day of administration, and on days 2 and 6 of treatment period, blood smear specimens were prepared, and vacuolated lymphocyte ratios were determined.

[2] = from Summary Basis of Approval (FDA); species and route not given; cited from earlier work
Crj: CD(SD)IGS rats [3] = assay: Urinary PAG/hippuric acid ratio by 1H NMR in rats; details: rat urine; for PAG + hippuric acid/creatinine / PAG/PAG + hippuric acid / PAG/creatinine (first term of PAG + hippuric acid) / PAG/hippuric acid / hippuric acid/creatinine (second term of PAG + hippuric acid): 3 days, mean n = 3-4
Description: During the urine pooling, the collecting vessels were kept in an ice-cooled condition. After the urine collection, the urine was centrifuged at 1500×g for 10 minutes, and not less than 1 mL of the supernatant was collected and stored under freezing (below −70° C.) in a microtube in an ultralow-temperature freezer until the measurement. For the negative control group, 24-hour pooled urine was collected under ice cooling; after the urine collection, the urine was stored at −30° C. until the measurement.
Crj: CD(SD)IGS rats [4] = details: male, rat, in vivo, 3 days
Description: as §1, §2, §3, §4
Hematological examination was performed for parameters such as RBC count, hematocrit, hemoglobin concentration, mean corpuscular hemoglobin (MCH), mean corpuscular hemoglobin concentration (MCHC), mean corpuscular volume (MCV), platelet count, WBC count, reticulocyte count, differential WBC, and vacuolated lymphocyte ratio (for PLsis-inducing compounds only) using ADVIA120 (Bayer Medical Ltd.) and E-4000 (Sysmex Corporation).

SMILES: CCCCc1oc2ccccc2c1C(=O)c1cc(I)c(OCCN(CC)CC)c(I)c1 [Amiodarone]
- Histopathological changes (PLsis): Liver (Crj: CD(SD)IGS rats [1]; 100 mg/kg/day): −
- Histopathological changes (PLsis): Lung (Crj: CD(SD)IGS rats [1]; 100 mg/kg/day): −
- Histopathological changes (PLsis): Lymph node (Crj: CD(SD)IGS rats [1]; 100 mg/kg/day): −
- Histopathological changes (PLsis): Others (Crj: CD(SD)IGS rats [1]; 100 mg/kg/day): −
- Histopathological changes (PLsis): Spleen (Crj: CD(SD)IGS rats [1]; 100 mg/kg/day): −
- Histopathological changes (PLsis): Liver (Crj: CD(SD)IGS rats [1]; 300 mg/kg/day): −
- Histopathological changes (PLsis): Lung (Crj: CD(SD)IGS rats [1]; 300 mg/kg/day): +
- Histopathological changes (PLsis): Lymph node (Crj: CD(SD)IGS rats [1]; 300 mg/kg/day): +
- Histopathological changes (PLsis): Others (Crj: CD(SD)IGS rats [1]; 300 mg/kg/day): −
- Histopathological changes (PLsis): Spleen (Crj: CD(SD)IGS rats [1]; 300 mg/kg/day): −
- Histopathological changes (PLsis): Liver (Crj: CD(SD)IGS rats [1]; 1000 mg/kg/day): −
- Histopathological changes (PLsis): Lung (Crj: CD(SD)IGS rats [1]; 1000 mg/kg/day): +
- Histopathological changes (PLsis): Lymph node (Crj: CD(SD)IGS rats [1]; 1000 mg/kg/day): +
- Histopathological changes (PLsis): Others (Crj: CD(SD)IGS rats [1]; 1000 mg/kg/day): −
- Histopathological changes (PLsis): Spleen (Crj: CD(SD)IGS rats [1]; 1000 mg/kg/day): +
- induction of PLsis/steatosis (male cynomolgus monkeys; 60 mg/kg): not observed
- histopathological changes in any target organ (male cynomolgus monkeys; 300 mg/kg): observed

SMILES: CN(C)CCCN1c2ccccc2Sc2ccc(Cl)cc21 [Chlorpromazine, chlorpromazine]
- LD50 [2]: 145 mg/kg
- PAG + hippuric acid/creatinine (Crj: CD(SD)IGS rats [3]; 100 mg/kg/day by gavage): 1.45
- PAG/PAG + hippuric acid (Crj: CD(SD)IGS rats [3]; 100 mg/kg/day by gavage): 12.80%
- PAG/creatinine (first term of PAG + hippuric acid) (Crj: CD(SD)IGS rats [3]; 100 mg/kg/day by gavage): 0.18
- PAG/hippuric acid (Crj: CD(SD)IGS rats [3]; 100 mg/kg/day by gavage): 14.93%
- hippuric acid/creatinine (second term of PAG + hippuric acid) (Crj: CD(SD)IGS rats [3]; 100 mg/kg/day by gavage): 1.27
- PAG + hippuric acid/creatinine (Crj: CD(SD)IGS rats [3]; 300 mg/kg/day by gavage): 1.63
- PAG/PAG + hippuric acid (Crj: CD(SD)IGS rats [3]; 300 mg/kg/day by gavage): 12.57%
- PAG/creatinine (first term of PAG + hippuric acid) (Crj: CD(SD)IGS rats [3]; 300 mg/kg/day by gavage): 0.21
- PAG/hippuric acid (Crj: CD(SD)IGS rats [3]; 300 mg/kg/day by gavage): 14.51%
- PAG + hippuric acid/creatinine (Crj: CD(SD)IGS rats [3]; 1000 mg/kg/day by gavage): 0.86*
- PAG/PAG + hippuric acid (Crj: CD(SD)IGS rats [3]; 1000 mg/kg/day by gavage): 42.20* %
- PAG/creatinine (first term of PAG + hippuric acid) (Crj: CD(SD)IGS rats [3]; 1000 mg/kg/day by gavage): 0.30
- PAG/hippuric acid (Crj: CD(SD)IGS rats [3]; 1000 mg/kg/day by gavage): 104.13* %
- hippuric acid/creatinine (second term of PAG + hippuric acid) (Crj: CD(SD)IGS rats [3]; 1000 mg/kg/day by gavage): 0.56
- PAG/hippuric acid ratio or PAG/(PAG+hippuric acid) ratio (Crj: CD(SD)IGS rats [3]; high-dose administration group, 3-day administration): remarkable increase
- PLsis positivity by histopathological examination or vacuolated lymphocyte testing (Crj: CD(SD)IGS rats [1]): could not be determined
- Histopathological changes (PLsis): Liver (Crj: CD(SD)IGS rats [1]; 100 mg/kg/day): −
- Histopathological changes (PLsis): Lung (Crj: CD(SD)IGS rats [1]; 100 mg/kg/day): −
- Histopathological changes (PLsis): Lymph node (Crj: CD(SD)IGS rats [1]; 100 mg/kg/day): −
- Histopathological changes (PLsis): Others (Crj: CD(SD)IGS rats [1]; 100 mg/kg/day): −
- Histopathological changes (PLsis): Spleen (Crj: CD(SD)IGS rats [1]; 100 mg/kg/day): −
- Histopathological changes (PLsis): Liver (Crj: CD(SD)IGS rats [1]; 300 mg/kg/day): −
- Histopathological changes (PLsis): Lung (Crj: CD(SD)IGS rats [1]; 300 mg/kg/day): −
- Histopathological changes (PLsis): Lymph node (Crj: CD(SD)IGS rats [1]; 300 mg/kg/day): −
- Histopathological changes (PLsis): Others (Crj: CD(SD)IGS rats [1]; 300 mg/kg/day): −
- Histopathological changes (PLsis): Spleen (Crj: CD(SD)IGS rats [1]; 300 mg/kg/day): −
- Histopathological changes (PLsis): Liver (Crj: CD(SD)IGS rats [1]; 1000 mg/kg/day): −
- Histopathological changes (PLsis): Lung (Crj: CD(SD)IGS rats [1]; 1000 mg/kg/day): −
- Histopathological changes (PLsis): Lymph node (Crj: CD(SD)IGS rats [1]; 1000 mg/kg/day): −
- Histopathological changes (PLsis): Others (Crj: CD(SD)IGS rats [1]; 1000 mg/kg/day): −
- Histopathological changes (PLsis): Spleen (Crj: CD(SD)IGS rats [1]; 1000 mg/kg/day): −
- Mean vacuolated lymphocyte ratio (Crj: CD(SD)IGS rats [4]; 100 mg/kg/day): 2%
- Mean vacuolated lymphocyte ratio (Crj: CD(SD)IGS rats [4]; 300 mg/kg/day): 2%
- Mean vacuolated lymphocyte ratio (Crj: CD(SD)IGS rats [4]; 1000 mg/kg/day): 1%

From patent US7399638B2, “Prediction method for lipidosis” (Takeda Pharmaceutical Company Limited, priority 2003, dated 2008)
